Measurements: patent publication US9517229B2, “Treatment of breast cancer” (MEDIVATION PROSTATE THERAPEUTICS, INC., priority 2011, dated 2016)

Columns and labels:
Hs578T cells = assay: MTS viable cell assay in Hs578T TNBC cell line; type: cell-based; conditions: RD162′ 10 μM, DHT 10 nM, 9 days, FIG. 8
Procedure: Viable cells were assayed by MTS assay. Averages of the triplicate data points are shown with standard deviation. ***p<0.001 (two-tail t-test).

MCF7 cells [1] = assay: MTT in vitro proliferation assay, DHT-mediated growth in MCF7 cells; type: cell-based; conditions: 10 μM RD162′ with 10 nM DHT; MTT at various time points; FIG. 1
BCK4 cells = assay: Proliferation assay, DHT-mediated growth in BCK4 cells; type: cell-based; conditions: RD162′ and DHT; FIG. 2
MCF7 cells [2] = assay: MTT assay, estradiol-mediated growth in MCF7 cells; type: cell-based; conditions: 10 μM RD162′ with 10 nM estradiol (E2); MTT at various time points; FIG. 3
Procedure: MCF7 cells were plated in phenol red-free medium containing charcoal stripped serum. […] An MTT assay was performed at various time points. The values were normalized to an untreated plate read 24 hours after plating to account for differences in cell density.

MCF7 cells [3] = assay: MCF7 luciferase tumors in mammary fat pad of ovariectomized nod/scid mice with DHT pellet; type: in vivo; conditions: chow containing 50 mg/kg RD162′ from day 22, FIGS. 5A-D
BT20 cells = assay: MTT assay in triple negative breast cancer cell line BT20; type: cell-based; conditions: 10 μM RD162′, FIG. 6B
MDA468 cells = assay: MTT assay in triple negative breast cancer cell line MDA468; type: cell-based; conditions: 10 μM RD162′, FIG. 6C
MDA-MB-453 cells [4] = assay: MTS in vitro proliferation assay, DHT-induced proliferation of MDA-MB-453 cells; type: cell-based; conditions: 10 μM RD162′, 10 nM DHT, FIG. 7A
[5] = system: androgen-dependent luciferase reporter in MDA-kb2 cells; assay: Luciferase assay in MDA-kb2 cells with androgen-dependent luciferase reporter; type: cell-based; conditions: FIG. 7B
MDA-MB-453 cells [6] = assay: MDA-MB-453 xenograft in mammary fat pad of NOD-SCID-IL2Rgc-/- mice with DHT pellet (Example 7); type: in vivo
MDA-MB-453 tumors = assay: Androgen stimulated MDA-MB-453 orthotopic tumors in NOD-SCID-IL2Rgc-/- mice (Example 10); type: in vivo
MCF7-TGL cells = assay: Estrogen stimulated MCF7-TGL orthotopic tumors in ovariectomized nude mice; type: in vivo; conditions: for BrdU staining of tumor sections, P vs E2 group: BrdU two hours prior to sacrifice, ANOVA with Bonferroni correction, FIG. 11D
Procedure: MCF7-TGL cells stably expressing luciferase were implanted orthotopically in the mammary gland of ovariectomized female nude mice. […] The beginning of treatment is indicated by an arrow. Tumor burden was measured by whole body luminescence. […] Mice were matched on day −3 and treatment began on day 0. * indicates P<0.05, ANOVA with Bonferroni's multiple comparison test correction (FIG. 11A). The total luminescent flux is shown for all individual mice at the day of matching (Day −3) and at the final imaging day (Day 11). * indicates P<0.05, ANOVA with Bonferroni's multiple comparison test correction (FIG. 11B). Images of luminescent signal in the two treatment groups at the day of matching ([…]) and the final day of imaging (day 11) is shown (FIG. 11C). Mice were injected with BrdU two hours prior to sacrifice.

## C[C@]12CCC(=O)C[C@@H]1CC[C@@H]1[C@@H]2CC[C@]2(C)[C@@H](O)CC[C@@H]12 [DHT, dihydrotestosterone, reference compound]
Hs578T cells
  growth of Hs578T cells (viable cells): does not increase the growth

## CNC(=O)c1ccc(N2C(=S)N(c3ccc(C#N)c(C(F)(F)F)c3)C(=O)C2(C)C)cc1F [RD162′, enzalutamide]
MCF7 cells [1]
  DHT-mediated growth of MCF7 cells: blocks DHT-mediated growth
BCK4 cells
  DHT-mediated growth of BCK4 cells: blocks DHT-mediated growth
MCF7 cells [2]
  estradiol-mediated growth of MCF7 cells: blocks estradiol-mediated growth
MCF7 cells [3]
  DHT-mediated tumor growth in vivo (caliper and IVIS imaging): inhibits DHT-mediated tumor growth
BT20 cells
  cell growth of BT20: inhibits cell growth
  cell viability of BT20: decreases cell viability
MDA468 cells
  cell growth of MDA468: inhibits cell growth
  cell viability of MDA468: decreases cell viability
MDA-MB-453 cells [4]
  proliferation of MDA-MB-453 cells induced by DHT: inhibits proliferation
[5]
  DHT-induced signal in luciferase assay (printed as proliferation): inhibits proliferation induced by DHT in a dose dependent manner
MDA-MB-453 cells [6]; 10 mg/kg/d and 25 mg/kg/d RD162′ by oral gavage, both doses, FIG. 7E
  DHT induced tumor growth (tumor weight at necropsy): significantly inhibited DHT induced tumor growth
MDA-MB-453 cells [6]; 10 mg/kg/d or 25 mg/kg/d RD162′ by oral gavage, either dose, FIG. 7D
  tumor growth induced by DHT (caliper tumor size): inhibited tumor growth
MDA-MB-453 tumors; RD162′ 10 mg/kg daily oral gavage from 100 mm^3, DHT pellet, FIGS. 10A-D
  androgen stimulated growth of MDA-MB-453 tumors: Inhibits Androgen Stimulated Growth
MDA-MB-453 tumors; RD162′ 25 mg/kg by oral gavage started when tumors reached 400 mm^3, weekly caliper, FIG. 10A
  tumor volume, DHT vs DHT+RD162′: no significant differences at any time point
Hs578T cells
  growth of Hs578T cells (viable cells): Inhibits the Growth
MCF7-TGL cells
  BrdU staining of tumor sections, P vs E2 group: < 0.001
MCF7-TGL cells; chow containing 50 mg/kg RD162′ vs tamoxifen pellet SQ, E2 pellet, FIGS. 11A-C
  inhibition of estrogen stimulated tumor growth (whole body luminescence): as Effective as Tamoxifen

## CC/C(=C(\c1ccccc1)c1ccc(OCCN(C)C)cc1)c1ccccc1 [Tamoxifen, tamoxifen, reference compound]
MCF7-TGL cells
  BrdU staining of tumor sections, P vs E2 group: < 0.01
